Measurements from the NIST ThermoML archive (doi:10.1016/j.jct.2013.09.010).
Values joined by “and” are separate entries in the source; they are usually repeats but may differ in a detail not shown here. Equal values may be shown once.

What was measured:
[1] = molar heat capacity at constant pressure; conditions: 101 kPa, Liquid, Small sample (50 mg) DSC
[2] = Liquid, Vibrating tube method

CCCCC(=O)[O-].C[NH2+]CCO [2-hydroxy-N-methylethanaminium pentanoate]
[1]
Conditions	molar heat capacity at constant pressure
283.15 K	384.8 J/K/mol
287.15 K	396.1 J/K/mol and 394.2 J/K/mol
288.15 K	395.6 J/K/mol [middle of 5 runs]
289.15 K	396 J/K/mol [middle of 4 runs]
290.15 K	396.8 J/K/mol [middle of 4 runs]
291.15 K	397.4 J/K/mol [middle of 4 runs]
292.15 K	397.9 J/K/mol [middle of 4 runs]
293.15 K	397.7 J/K/mol [middle of 5 runs]
294.15 K	398.4 J/K/mol [middle of 4 runs]
295.15 K	399 J/K/mol [middle of 4 runs]
296.15 K	399.3 J/K/mol and 397.9 J/K/mol and 400.7 J/K/mol
297.15 K	400 J/K/mol [middle of 4 runs]
298.15 K	400.6 J/K/mol [middle of 4 runs]
299.15 K	402.3 J/K/mol and 401.1 J/K/mol and 399.5 J/K/mol
300.15 K	401.8 J/K/mol [middle of 4 runs]
301.15 K	402.3 J/K/mol [middle of 4 runs]
302.15 K	402.7 J/K/mol [middle of 4 runs]
303.15 K	402.3 J/K/mol [middle of 5 runs]
304.15 K	403.2 J/K/mol [middle of 4 runs]
305.15 K	403.6 J/K/mol [middle of 4 runs]
306.15 K	405 J/K/mol and 403 J/K/mol and 402.3 J/K/mol
307.15 K	402.7 J/K/mol
308.15 K	401.6 J/K/mol and 403 J/K/mol
309.15 K	403.4 J/K/mol
310.15 K	403.8 J/K/mol
311.15 K	404.3 J/K/mol
312.15 K	404.6 J/K/mol
313.15 K	405 J/K/mol and 405.2 J/K/mol
314.15 K	405.5 J/K/mol
315.15 K	405.7 J/K/mol
316.15 K	406.1 J/K/mol
317.15 K	406.1 J/K/mol
318.15 K	408.9 J/K/mol and 406.4 J/K/mol
319.15 K	406.8 J/K/mol
320.15 K	407.1 J/K/mol
321.15 K	407.5 J/K/mol
322.15 K	407.8 J/K/mol
323.15 K	412.8 J/K/mol and 408.2 J/K/mol
324.15 K	408.5 J/K/mol
325.15 K	408.9 J/K/mol
328.15 K	416.7 J/K/mol
333.15 K	420.6 J/K/mol

mass density [kg/m3], [2]
Conditions	298.15 K	308.15 K	318.15 K	328.15 K	338.15 K	348.15 K	358.15 K
100 kPa	1009.33	1002.78	996.28	989.85	983.48	977.17	970.92
5000 kPa	1011.62	1005.23	998.89	992.6	986.35	980.15	974
10000 kPa	1014.08	1007.73	1001.45	995.24	989.11	983.05	977.05
15000 kPa	1016.41	1010.14	1003.96	997.85	991.83	985.88	980.01
20000 kPa	1018.67	1012.49	1006.39	1000.37	994.43	988.57	982.79
25000 kPa	1020.85	1014.74	1008.72	1002.79	996.97	991.23	985.59

CCC(=O)[O-].C[NH2+]CCO [2-hydroxy-N-methylethanaminium propionate]
[1]
Conditions	molar heat capacity at constant pressure
287.15 K	322.8 J/K/mol
288.15 K	324.3 J/K/mol and 323.1 J/K/mol and 322.8 J/K/mol
289.15 K	324.5 J/K/mol [middle of 4 runs]
290.15 K	324.8 J/K/mol [middle of 5 runs]
291.15 K	324.9 J/K/mol [middle of 5 runs]
292.15 K	325.7 J/K/mol [middle of 5 runs]
293.15 K	326.1 J/K/mol [middle of 5 runs]
294.15 K	326.6 J/K/mol [middle of 4 runs]
295.15 K	327 J/K/mol [middle of 4 runs]
296.15 K	327.2 J/K/mol [middle of 4 runs]
297.15 K	327.5 J/K/mol [middle of 5 runs]
298.15 K	327.9 J/K/mol [middle of 4 runs]
299.15 K	328.2 J/K/mol [middle of 5 runs]
300.15 K	328.7 J/K/mol [middle of 5 runs]
301.15 K	329.1 J/K/mol [middle of 5 runs]
302.15 K	329.4 J/K/mol [middle of 5 runs]
303.15 K	329.7 J/K/mol [middle of 5 runs]
304.15 K	329.9 J/K/mol [middle of 4 runs]
305.15 K	330 J/K/mol [middle of 4 runs]
306.15 K	330.7 J/K/mol and 330.2 J/K/mol and 329.6 J/K/mol
307.15 K	329.9 J/K/mol
308.15 K	330.2 J/K/mol
309.15 K	330.5 J/K/mol
310.15 K	330.9 J/K/mol
311.15 K	331.2 J/K/mol
312.15 K	331.6 J/K/mol
313.15 K	332.1 J/K/mol
314.15 K	332.4 J/K/mol
315.15 K	332.7 J/K/mol
316.15 K	332.8 J/K/mol
317.15 K	333 J/K/mol
318.15 K	333.1 J/K/mol
319.15 K	333.4 J/K/mol
320.15 K	333.6 J/K/mol
321.15 K	333.9 J/K/mol
322.15 K	334 J/K/mol
323.15 K	334.5 J/K/mol
324.15 K	334.9 J/K/mol
325.15 K	335.4 J/K/mol
326.15 K	335.8 J/K/mol

mass density [kg/m3], [2]
Conditions	100 kPa	2000 kPa	3000 kPa	5000 kPa	10000 kPa	15000 kPa	20000 kPa	25000 kPa
298.15 K	1065.75	1066.51	1066.95	1067.8	1069.86	1071.89	1073.87	1075.79
303.15 K	1062.59	1063.37	1063.82	1064.69	1066.79	1068.87	1070.88	1072.86
308.15 K	1059.41	1060.21	1060.67	1061.55	1063.7	1065.82	1067.88	1069.9
313.15 K	1056.21	1057.03	1057.51	1058.4	1060.6	1062.76	1064.86	1066.92
318.15 K	1052.99	1053.83	1054.32	1055.23	1057.47	1059.68	1061.82	1063.93
323.15 K	1049.76	1050.61	1051.11	1052.04	1054.32	1056.58	1058.76	1060.91
328.15 K	1046.5	1047.37	1047.89	1048.84	1051.16	1053.47	1055.68	1057.87
333.15 K	1043.23	1044.11	1044.64	1045.61	1047.97	1050.33	1052.59	1054.82
338.15 K	1039.93	1040.84	1041.38	1042.36	1044.77	1047.17	1049.47	1051.74
343.15 K	1036.62	1037.54	1038.1	1039.1	1041.55	1043.99	1046.33	1048.65
348.15 K	1033.29	1034.23	1034.8	1035.81	1038.3	1040.8	1043.17	1045.54
353.15 K	1029.94	1030.9	1031.48	1032.51	1035.04	1037.58	1040	1042.4
358.15 K	1026.57	1027.55	1028.14	1029.19	1031.76	1034.35	1036.8	1039.25
